# Laboratory results as given in ChEMBL document CHEMBL5523679, “Discovery of 1,2,3-triazole incorporated indole-piperazines as potent antitubercular agents: Design, synthesis, in vitro biological evaluation, molecular docking and ADME studies” (Bioorg Med Chem, 2024).
# Tested on: Mycobacterium tuberculosis
# Assay: Antimycobacterial activity against Mycobacterium tuberculosis H37Rv assessed as bacterial growth inhibition by microplate Alamar blue assay
# Type: functional
# Conditions: not given
row,Structure (SMILES),MIC [µM]
1,O=C(CCc1cn(Cc2cn(Cc3ccc(F)cc3)nn2)c2ccccc12)N1CCN(S(=O)(=O)c2ccc([N+](=O)[O-])cc2)CC1,39.6
2,O=C(CCc1cn(Cc2ccc(F)cc2)c2ccccc12)N1CCN(C(=O)c2ccc(F)cc2)CC1,12.8
3,Cc1ccc(C(=O)N2CCN(C(=O)CCc3cn(Cc4ccc(F)cc4)c4ccccc34)CC2)cc1,51.7
4,Cc1ccc(C(=O)N2CCN(C(=O)Cc3cn(Cc4ccc(F)cc4)c4ccccc34)CC2)cc1,26.6
5,Cc1ccc(S(=O)(=O)N2CCN(C(=O)CCc3c[nH]c4ccccc34)CC2)cc1,> 120
6,O=C(CCc1c[nH]c2ccccc12)N1CCN(S(=O)(=O)c2ccc(F)cc2)CC1,> 120
7,O=C(Cc1cn(Cc2ccc(F)cc2)c2ccccc12)N1CCN(S(=O)(=O)c2ccccc2)CC1,50.8
8,O=C(Cc1c[nH]c2ccccc12)N1CCN(S(=O)(=O)c2ccccc2)CC1,> 120

# Tested on: Escherichia coli
# Assay: Antibacterial activity against Escherichia coli assessed as inhibition zone at 75 ug/ml by diffusion method
# Type: functional
# Conditions: read-out: IZ
row,Structure (SMILES),zone of inhibition at 75 µg/mL [mm]
1,O=C(CCc1cn(Cc2cn(Cc3ccc(F)cc3)nn2)c2ccccc12)N1CCN(S(=O)(=O)c2ccc([N+](=O)[O-])cc2)CC1,20
2,O=C(CCc1cn(Cc2ccc(F)cc2)c2ccccc12)N1CCN(C(=O)c2ccc(F)cc2)CC1,18
3,Cc1ccc(C(=O)N2CCN(C(=O)CCc3cn(Cc4ccc(F)cc4)c4ccccc34)CC2)cc1,17
4,Cc1ccc(C(=O)N2CCN(C(=O)Cc3cn(Cc4ccc(F)cc4)c4ccccc34)CC2)cc1,15
5,Cc1ccc(S(=O)(=O)N2CCN(C(=O)CCc3c[nH]c4ccccc34)CC2)cc1,18
6,O=C(CCc1c[nH]c2ccccc12)N1CCN(S(=O)(=O)c2ccc(F)cc2)CC1,17
7,O=C(Cc1cn(Cc2ccc(F)cc2)c2ccccc12)N1CCN(S(=O)(=O)c2ccccc2)CC1,15
8,O=C(Cc1c[nH]c2ccccc12)N1CCN(S(=O)(=O)c2ccccc2)CC1,17

# Tested on: Escherichia coli
# Assay: Antibacterial activity against Escherichia coli assessed as inhibition zone at 50 ug/ml by diffusion method
# Type: functional
# Conditions: read-out: IZ
row,Structure (SMILES),zone of inhibition at 50 µg/mL [mm]
1,O=C(CCc1cn(Cc2cn(Cc3ccc(F)cc3)nn2)c2ccccc12)N1CCN(S(=O)(=O)c2ccc([N+](=O)[O-])cc2)CC1,18
2,O=C(CCc1cn(Cc2ccc(F)cc2)c2ccccc12)N1CCN(C(=O)c2ccc(F)cc2)CC1,15
3,Cc1ccc(C(=O)N2CCN(C(=O)CCc3cn(Cc4ccc(F)cc4)c4ccccc34)CC2)cc1,15
4,Cc1ccc(C(=O)N2CCN(C(=O)Cc3cn(Cc4ccc(F)cc4)c4ccccc34)CC2)cc1,13
5,Cc1ccc(S(=O)(=O)N2CCN(C(=O)CCc3c[nH]c4ccccc34)CC2)cc1,15
6,O=C(CCc1c[nH]c2ccccc12)N1CCN(S(=O)(=O)c2ccc(F)cc2)CC1,15
7,O=C(Cc1cn(Cc2ccc(F)cc2)c2ccccc12)N1CCN(S(=O)(=O)c2ccccc2)CC1,13
8,O=C(Cc1c[nH]c2ccccc12)N1CCN(S(=O)(=O)c2ccccc2)CC1,15

# Tested on: Escherichia coli
# Assay: Antibacterial activity against Escherichia coli assessed as inhibition zone at 25 ug/ml by diffusion method
# Type: functional
# Conditions: read-out: IZ
row,Structure (SMILES),zone of inhibition at 25 µg/mL [mm]
1,O=C(CCc1cn(Cc2cn(Cc3ccc(F)cc3)nn2)c2ccccc12)N1CCN(S(=O)(=O)c2ccc([N+](=O)[O-])cc2)CC1,15
2,Cc1ccc(S(=O)(=O)N2CCN(C(=O)CCc3c[nH]c4ccccc34)CC2)cc1,13
3,O=C(CCc1c[nH]c2ccccc12)N1CCN(S(=O)(=O)c2ccc(F)cc2)CC1,13
4,O=C(Cc1c[nH]c2ccccc12)N1CCN(S(=O)(=O)c2ccccc2)CC1,13

# Tested on: Staphylococcus aureus
# Assay: Antibacterial activity against Staphylococcus aureus assessed as inhibition zone at 75 ug/ml by diffusion method
# Type: functional
# Conditions: read-out: IZ
row,Structure (SMILES),zone of inhibition at 75 µg/mL [mm]
1,O=C(CCc1cn(Cc2cn(Cc3ccc(F)cc3)nn2)c2ccccc12)N1CCN(S(=O)(=O)c2ccc([N+](=O)[O-])cc2)CC1,20
2,O=C(CCc1cn(Cc2ccc(F)cc2)c2ccccc12)N1CCN(C(=O)c2ccc(F)cc2)CC1,23
3,Cc1ccc(C(=O)N2CCN(C(=O)CCc3cn(Cc4ccc(F)cc4)c4ccccc34)CC2)cc1,20
4,Cc1ccc(C(=O)N2CCN(C(=O)Cc3cn(Cc4ccc(F)cc4)c4ccccc34)CC2)cc1,20
5,Cc1ccc(S(=O)(=O)N2CCN(C(=O)CCc3c[nH]c4ccccc34)CC2)cc1,15
6,O=C(CCc1c[nH]c2ccccc12)N1CCN(S(=O)(=O)c2ccc(F)cc2)CC1,20
7,O=C(Cc1cn(Cc2ccc(F)cc2)c2ccccc12)N1CCN(S(=O)(=O)c2ccccc2)CC1,20
8,O=C(Cc1c[nH]c2ccccc12)N1CCN(S(=O)(=O)c2ccccc2)CC1,18

# Tested on: Staphylococcus aureus
# Assay: Antibacterial activity against Staphylococcus aureus assessed as inhibition zone at 50 ug/ml by diffusion method
# Type: functional
# Conditions: read-out: IZ
row,Structure (SMILES),zone of inhibition at 50 µg/mL [mm]
1,O=C(CCc1cn(Cc2cn(Cc3ccc(F)cc3)nn2)c2ccccc12)N1CCN(S(=O)(=O)c2ccc([N+](=O)[O-])cc2)CC1,12
2,O=C(CCc1cn(Cc2ccc(F)cc2)c2ccccc12)N1CCN(C(=O)c2ccc(F)cc2)CC1,17
3,Cc1ccc(C(=O)N2CCN(C(=O)CCc3cn(Cc4ccc(F)cc4)c4ccccc34)CC2)cc1,18
4,Cc1ccc(C(=O)N2CCN(C(=O)Cc3cn(Cc4ccc(F)cc4)c4ccccc34)CC2)cc1,15
5,Cc1ccc(S(=O)(=O)N2CCN(C(=O)CCc3c[nH]c4ccccc34)CC2)cc1,13
6,O=C(CCc1c[nH]c2ccccc12)N1CCN(S(=O)(=O)c2ccc(F)cc2)CC1,15
7,O=C(Cc1cn(Cc2ccc(F)cc2)c2ccccc12)N1CCN(S(=O)(=O)c2ccccc2)CC1,18
8,O=C(Cc1c[nH]c2ccccc12)N1CCN(S(=O)(=O)c2ccccc2)CC1,15

# Tested on: Staphylococcus aureus
# Assay: Antibacterial activity against Staphylococcus aureus assessed as inhibition zone at 25 ug/ml by diffusion method
# Type: functional
# Conditions: read-out: IZ
row,Structure (SMILES),zone of inhibition at 25 µg/mL [mm]
1,O=C(CCc1cn(Cc2cn(Cc3ccc(F)cc3)nn2)c2ccccc12)N1CCN(S(=O)(=O)c2ccc([N+](=O)[O-])cc2)CC1,6
2,O=C(CCc1cn(Cc2ccc(F)cc2)c2ccccc12)N1CCN(C(=O)c2ccc(F)cc2)CC1,13
3,Cc1ccc(C(=O)N2CCN(C(=O)CCc3cn(Cc4ccc(F)cc4)c4ccccc34)CC2)cc1,13
4,Cc1ccc(C(=O)N2CCN(C(=O)Cc3cn(Cc4ccc(F)cc4)c4ccccc34)CC2)cc1,10
5,Cc1ccc(S(=O)(=O)N2CCN(C(=O)CCc3c[nH]c4ccccc34)CC2)cc1,10
6,O=C(CCc1c[nH]c2ccccc12)N1CCN(S(=O)(=O)c2ccc(F)cc2)CC1,13
7,O=C(Cc1cn(Cc2ccc(F)cc2)c2ccccc12)N1CCN(S(=O)(=O)c2ccccc2)CC1,15
8,O=C(Cc1c[nH]c2ccccc12)N1CCN(S(=O)(=O)c2ccccc2)CC1,13

# Tested on: Pseudomonas aeruginosa
# Assay: Antibacterial activity against Pseudomonas aeruginosa assessed as inhibition zone at 75 ug/ml by diffusion method
# Type: functional
# Conditions: read-out: IZ
row,Structure (SMILES),zone of inhibition at 75 µg/mL [mm]
1,O=C(CCc1cn(Cc2cn(Cc3ccc(F)cc3)nn2)c2ccccc12)N1CCN(S(=O)(=O)c2ccc([N+](=O)[O-])cc2)CC1,12
2,O=C(CCc1cn(Cc2ccc(F)cc2)c2ccccc12)N1CCN(C(=O)c2ccc(F)cc2)CC1,13
3,Cc1ccc(C(=O)N2CCN(C(=O)CCc3cn(Cc4ccc(F)cc4)c4ccccc34)CC2)cc1,18
4,Cc1ccc(C(=O)N2CCN(C(=O)Cc3cn(Cc4ccc(F)cc4)c4ccccc34)CC2)cc1,18
5,Cc1ccc(S(=O)(=O)N2CCN(C(=O)CCc3c[nH]c4ccccc34)CC2)cc1,18
6,O=C(CCc1c[nH]c2ccccc12)N1CCN(S(=O)(=O)c2ccc(F)cc2)CC1,18
7,O=C(Cc1cn(Cc2ccc(F)cc2)c2ccccc12)N1CCN(S(=O)(=O)c2ccccc2)CC1,18
8,O=C(Cc1c[nH]c2ccccc12)N1CCN(S(=O)(=O)c2ccccc2)CC1,18

# Tested on: Pseudomonas aeruginosa
# Assay: Antibacterial activity against Pseudomonas aeruginosa assessed as inhibition zone at 50 ug/ml by diffusion method
# Type: functional
# Conditions: read-out: IZ
row,Structure (SMILES),zone of inhibition at 50 µg/mL [mm]
1,O=C(CCc1cn(Cc2cn(Cc3ccc(F)cc3)nn2)c2ccccc12)N1CCN(S(=O)(=O)c2ccc([N+](=O)[O-])cc2)CC1,10
2,Cc1ccc(C(=O)N2CCN(C(=O)CCc3cn(Cc4ccc(F)cc4)c4ccccc34)CC2)cc1,15
3,Cc1ccc(C(=O)N2CCN(C(=O)Cc3cn(Cc4ccc(F)cc4)c4ccccc34)CC2)cc1,15
4,Cc1ccc(S(=O)(=O)N2CCN(C(=O)CCc3c[nH]c4ccccc34)CC2)cc1,15
5,O=C(CCc1c[nH]c2ccccc12)N1CCN(S(=O)(=O)c2ccc(F)cc2)CC1,15
6,O=C(Cc1cn(Cc2ccc(F)cc2)c2ccccc12)N1CCN(S(=O)(=O)c2ccccc2)CC1,15
7,O=C(Cc1c[nH]c2ccccc12)N1CCN(S(=O)(=O)c2ccccc2)CC1,15

# Tested on: Pseudomonas aeruginosa
# Assay: Antibacterial activity against Pseudomonas aeruginosa assessed as inhibition zone at 25 ug/ml by diffusion method
# Type: functional
# Conditions: read-out: IZ
row,Structure (SMILES),zone of inhibition at 25 µg/mL [mm]
1,Cc1ccc(C(=O)N2CCN(C(=O)CCc3cn(Cc4ccc(F)cc4)c4ccccc34)CC2)cc1,10
2,Cc1ccc(C(=O)N2CCN(C(=O)Cc3cn(Cc4ccc(F)cc4)c4ccccc34)CC2)cc1,10
3,Cc1ccc(S(=O)(=O)N2CCN(C(=O)CCc3c[nH]c4ccccc34)CC2)cc1,10
4,O=C(CCc1c[nH]c2ccccc12)N1CCN(S(=O)(=O)c2ccc(F)cc2)CC1,13
5,O=C(Cc1cn(Cc2ccc(F)cc2)c2ccccc12)N1CCN(S(=O)(=O)c2ccccc2)CC1,10
6,O=C(Cc1c[nH]c2ccccc12)N1CCN(S(=O)(=O)c2ccccc2)CC1,13

# Tested on: not listed separately
# Assay: Cytotoxicity against African green monkey Vero cells measured after 72 hrs by MTT assay
# Type: toxicity, cell-based
# Conditions: chlorocebus sabaeus
row,Structure (SMILES),CC50 at 72 h [µg/mL]
1,O=C(CCc1cn(Cc2ccc(F)cc2)c2ccccc12)N1CCN(C(=O)c2ccc(F)cc2)CC1,619

# Tested on: not listed separately
# Assay: Selectivity index, ratio of CC50 for African green monkey Vero cells to MIC for Mycobacterium tuberculosis H37Rv
# Type: toxicity
# Conditions: read-out: Selectivity Index
row,Structure (SMILES),selectivity ratio
1,O=C(CCc1cn(Cc2ccc(F)cc2)c2ccccc12)N1CCN(C(=O)c2ccc(F)cc2)CC1,198

# Tested on: not listed separately
# Assay: Cytotoxicity against African green monkey Vero cells assessed as inhibition of cell growth at 6.25 ug/ml measured after 72 hrs by MTT assay relative to control
# Type: toxicity, cell-based
# Conditions: chlorocebus sabaeus, at 6.25 µg/mL
row,Structure (SMILES),"inhibition at 72 h, 6.25 ug/ml [%]"
1,O=C(CCc1cn(Cc2ccc(F)cc2)c2ccccc12)N1CCN(C(=O)c2ccc(F)cc2)CC1,31.9
